# Key:
# Type in all cases: cell-based
# MAIT cells in human PBMC = experiment: MAIT cell proliferation in CTV-labeled PBMCs; details: day 7, 5-OP-RU 10 μM, RF ligands 100 μM
# THP-1.MR1 cells [1] = experiment: Cell surface MR1 quantification by flow cytometry, THP-1.MR1; details: THP-1.MR1, 3 h
# Procedure: Next, we investigated whether these RF catabolites can impact MR1 cell surface expression in both MR1-transduced B cell lymphoblastoid (C1R.MR1) and monocytic (THP-1.MR1) cell lines (Fig. 2). Here, the cells were pulsed with 1–200 μM of RF or the RF catabolites, and the cell surface levels of MR1 were quantified by flow cytometry ([Awad et al., 2020a]; [Keller et al., 2017]). Cell viability was unaffected, even at highest concentrations of the catabolites, as depicted in Fig. S2A. […] No impact on the MR1 surface level was observed when the parental C1R cells were incubated with these RF catabolites, probably due to the low basal surface MR1 level whose further reduction becomes undetectable by the anti-MR1 antibody (Fig. S2B). The MR1 downregulation seen in C1R.MR1 cells was specific to MR1 as the level of HLA-A*02:01 was not affected after pulsing C1R-A2 with the ligands (Fig. S2C). […]
# (§1) The level of MR1 expressed on the cell surface was measured after the exposure to the investigated ligands as previously described ([Awad et al., 2020a]; [Wang et al., 2022a]). […] The PE fluorescence intensity reflects the surface MR1 level. The data was acquired with an LSRFortessa X-20 (BD Biosciences) and Diva software (BD Biosciences) and analyzed using FlowJo software (BD Biosciences).
# C1R.MR1^R9H cells = experiment: Cell surface MR1 R9H quantification, C1R.MR1^R9H
# Source text: We then tested the effect of the RF catabolites on the expression of two mutant versions of MR1 termed MR1^R9H ([Howson et al., 2020]) and MR1^K43A ([Reantragoon et al., 2013]). First, we tested the MR1^R9H mutant ([Howson et al., 2020]) which represents a rare, natural human polymorph. […] When C1R. […] Next, we tested sought to understand how the previously characterised Lys43A mutation affects ligand binding. […] While this is in line with the ability of these ligands to bind MR1, the reason for MR1^K43A cell surface accumulation is less clear. The most likely explanation is that these ligands bind ER-resident MR1^K43A, in line with our data using wild-type MR1; however, because the K43A mutation results in spontaneous MR1 surface egress, the presence of these stabilising ligands promotes enhanced trafficking and/or retention at the cell surface. We cannot rule out however that the ligands may also bind directly to surface MR1^K43A and slow down the recycling from cell surface.
# as §1
# C1R.MR1 cells = experiment: Endo H treatment and western blot of intracellular MR1; details: C1R.MR1, 16 h; RF and catabolites 100 μM, Ac-6-FP 10 μM
# Procedure: The downregulation of MR1 on the cell surface by the RF catabolites could be due to the depletion of the intracellular ER-resident MR1 pool, or by retention of MR1 in the ER, as shown for the DB28 ligand ([Salio et al., 2020]). To investigate this, C1R.MR1 cells were treated for 16 h with 100 μM of RF or RF catabolites, conditions which induce MR1 downregulation (Fig. 3A). Cells were lysed, and treated with endoglycosidase (Endo) H, to distinguish molecules that remain within the ER from those that have trafficked to the cell surface ([McWilliam et al., 2016]), then MR1 levels were assessed by immunoblotting (Fig. 3A).
# Figure 3. […] S, Endo H–susceptible MR1; R, Endo H–resistant MR1. The Endo H–susceptible MR1 and Endo H–resistant MR1 fractions were quantified in at least two independent experiments. (b) Intracellular total MR1 level was also measured in C1R.MR1 cells by flow cytometry after treating the cells with the indicated ligands (100 μM) for 16h followed by permeabilization and staining with anti-MR1-PE (8F2.F9). Shown are the overlay histograms (top) and a bar chart depicting the geometric mean fluorescence intensity (gMFI) fold change of intracellular MR1 level (bottom) from three independent experiments performed in duplicates, with standard error (SEM) represented by the error bars. […]
# THP-1.MR1 cells [2] = experiment: Competition with Ac-6-FP-induced MR1 upregulation, THP-1.MR1; details: 1–200 μM overnight, then 10 μM Ac-6-FP 3 h
compound,measurement,setting,value
"Cc1cc2nc3[nH]c(=O)[nH]c(=O)c3nc2cc1C [Lumichrome, 7,8-dimethylalloxazine]",MAIT cell proliferation,MAIT cells in human PBMC,significantly reduced MAIT cell proliferation
Cc1cc2nc3c(=O)[nH]c(=O)nc-3n(C)c2cc1C [Lumiflavin],MR1 cell surface expression,THP-1.MR1 cells [1],downregulated MR1
"Cc1cc2nc3c(=O)[nH]c(=O)nc-3n(C[C@H](O)[C@H](O)[C@H](O)CO)c2cc1C [RF, Riboflavin]",MR1^R9H surface level,C1R.MR1^R9H cells,did not deviate from the background level
same,Endo H-resistant MR1,C1R.MR1 cells,Neither RF nor its catabolites induced any Endo H-resistant MR1
same,effect on Ac-6-FP-induced cell surface upregulation of MR1,THP-1.MR1 cells [2],did not modulate
